Reference: patent US20060052415A1, “N-{2-chloro-4-[(6,7-dimethoxy-4-quinolyl)oxy]phenyl}-n'-(5-methyl-3-isoxazolyl)urea salt in crystalline form” (KIRIN BEER KABUSHIKI KAISHA, priority 2002, published 2006)
“Also recorded” adds a separate entry of the source.

How the values were obtained:
[1] = Stability of crystal under heating (73° C.) conditions; assay type: physicochemical; conditions: stored at 73° C. for 2 weeks, hydrochloride
Method: (§1) X-ray diffraction patterns of crystals were taken using Cu-Kα radiation (40 kV, 40 mA, λ=1.541 angstroms) with a powder X-ray diffraction apparatus (X-ray diffraction RINT DMAX-2000, manufactured by Rigaku Industrial Corporation) (scanning speed: 5 degrees/min, scanning range: 5.000 to 40.000 degrees, filter: Kβ filter). Based on powder X-ray diffraction patterns thus obtained, peak positions and relative intensity (%) were determined for peaks with a relative intensity of not less than 20%.
Stability of Crystal Under Heating (73° C.) Conditions
Form I to III crystals of hydrochloride, form I crystal of nitrate, form I and II crystals of sulfate, form I crystal of methanesulfonate, form I and II crystals of p-toluenesulfonate, and form I and II crystals of maleate of N-{2-chloro-4-[(6,7-dimethoxy-4-quinolyl)oxy]phenyl}-N′-(5-methyl-3-isoxazolyl)urea were stored at 73° C. for 2 weeks. […]

[2] = Stability of crystal under high humidity (40° C., 75% RH) conditions; assay type: physicochemical; conditions: stored at 40° C. and 75% RH for 2 weeks, hydrochloride
Method: as §1
Stability of Crystal Under High Humidity (40° C., 75% RH) Conditions
Form I to III crystals of hydrochloride, form I crystal of nitrate, form I and II crystals of sulfate, form I crystal of methanesulfonate, form I and II crystals of p-toluenesulfonate, and form I and II crystals of maleate of N-{2-chloro-4-[(6,7-dimethoxy-4-quinolyl)oxy]phenyl}-N′-(5-methyl-3-isoxazolyl)urea were stored under conditions of 40° C. and 75% RH for 2 weeks. […]

[3] = Stability of crystal against physical stress (grinding in a mortar); assay type: physicochemical; conditions: ground in an agate or porcelain mortar, hydrochloride
Method: as §1
Stability of Crystal Against Physical Stress
Each of form I to III crystals of hydrochloride, form I crystal of nitrate, form I and II crystals of sulfate, form I crystal of methanesulfonate, form I and II crystals of p-toluenesulfonate, and form I and II crystals of maleate of N-{2-chloro-4-[(6,7-dimethoxy-4-quinolyl)oxy]phenyl}-N′-(5-methyl-3-isoxazolyl)urea was ground in a mortar. In grinding each crystal in the mortar, about 1 mg of each crystal sample was placed and ground in an agate mortar or a porcelain mortar. For each sample before and after grinding, a powder X-ray diffraction chart was measured by method 1 to evaluate the stability of the crystal against physical stress.

[4] = Hygroscopicity of crystal (weight change on storage); assay type: physicochemical; conditions: 40° C. and 75% RH, hydrochloride; for hygroscopicity (level, in words): 2 weeks, based on weight change
Method: Hygroscopicity of Crystal
Form I to III crystals of hydrochloride, form I crystal of nitrate, form I and II crystals of sulfate, form I crystal of methanesulfonate, form I and II crystals of p-toluenesulfonate, and form I and II crystals of maleate of N-{2-chloro-4-[(6,7-dimethoxy-4-quinolyl)oxy]phenyl}-N′-(5-methyl-3-isoxazolyl)urea were stored under conditions of 40° C. and 75% RH for 2 weeks. Before and after the storage, the weight of each crystal was measured to determine a difference in weight between before the storage and after the storage.
For each crystal, the hygroscopicity was evaluated based on the weight change.

[5] = Suspending crystal in aqueous methylcellulose solution (administration solution for rodents); assay type: physicochemical
Description: In the most preferred embodiment of the present invention, the crystal of a salt according to the present invention is form I crystal of N-{2-chloro-4-[(6,7-dimethoxy-4-quinolyl)oxy]phenyl}-N′-(5-methyl-3-isoxazolyl)urea hydrochloride. This form I crystal of hydrochloride has all physicochemical properties that are desired as pharmaceutical preparations for oral administration. The powder X-ray diffraction pattern of form I crystal of hydrochloride is not similar to that of other crystalline forms of hydrochloride (for example, form II crystal and form III crystal). Therefore, the mixing ratio of crystalline forms can be easily determined. […] Therefore, problems with administration are less likely to occur. Also in this respect, form I crystal of hydrochloride is advantageous.

tumor = conditions: in vivo; cited from earlier work
[6] = listed as form I crystal of hydrochloride
[7] = listed as form III crystal of hydrochloride

SMILES	stability of crystal under high temperature conditions (change of powder X-ray diffraction chart) [1, 6]	stability of crystal under high humidity conditions (change of powder X-ray diffraction chart) [2, 6]	stability of crystal against physical stress (powder X-ray diffraction before and after grinding) [3, 6]	hygroscopicity (level, in words) [4]	weight change (hygroscopicity) After 1 week [4]	weight change (hygroscopicity) After 2 weeks [4]	weight change (hygroscopicity) After 2 days [4]	formation of gel on suspending [5]	stability of crystal under high temperature conditions (change of powder X-ray diffraction chart) [1, 7]	stability of crystal under high humidity conditions (change of powder X-ray diffraction chart) [2, 7]	stability of crystal against physical stress (powder X-ray diffraction before and after grinding) [3, 7]	tumor enhancement inhibitory activity (tumor)
COc1cc2nccc(Oc3ccc(NC(=O)Nc4cc(C)on4)c(Cl)c3)c2cc1OC.Cl [Form I crystal of hydrochloride, N-{2-chloro-4-[(6,7-dimethoxy-4-quinolyl)oxy]phenyl}-N′-(5-methyl-3-isoxazolyl)urea hydrochloride]	excellent stability	excellent stability	excellent stability	low level of hygroscopicity; also recorded: on a low level	0.01%	0.00%	0.00%	does not undergo a deterioration that results in the formation of gel				
COc1cc2nccc(Oc3ccc(NC(=O)Nc4cc(C)on4)c(Cl)c3)c2cc1OC.Cl [Form III crystal of hydrochloride, N-{2-chloro-4-[(6,7-dimethoxy-4-quinolyl)oxy]phenyl}-N′-(5-methyl-3-isoxazolyl)urea hydrochloride]				highly hygroscopic	1.49%	1.93%	1.06%		converted to form II crystal	converted to form I crystal	lowering in peak intensity	
COc1cc2nccc(Oc3ccc(NC(=O)Nc4cc(C)on4)c(Cl)c3)c2cc1OC [N-{2-chloro-4-[(6,7-dimethoxy-4-quinolyl)oxy]phenyl}-N′-(5-methyl-3-isoxazolyl)urea]												has tumor enhancement inhibitory activity in vivo
